Test results published in PMC9299836 (eLife, 2022).
Values joined by “and” are separate entries in the source; they are usually repeats but may differ in a detail not shown here. Equal entries are not always repeated. Where two headings read alike, the source gives them in different places.

What was measured:
mGluR2 [1] = molecular target: T1, mGluR2 (Mus musculus, UniProt Q14BI2); assay: Live-cell FRET, SNAP-m2 (VFT domain) inter-subunit sensor in HEK293T cells; conditions: for Normalized FRET response, Mean (SNAP-m2 agonist DRC): maximal responses normalized to 1mM glutamate;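 on all read-outs here: apparent FRET efficiency from whole-membrane ROIs of single cells, corrected for donor bleed-through and background, ΔFRET as treatment minus pretreatment signal, recorded at room temperature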
mGluR2 [2] = molecular target: T1, mGluR2; assay: Functional calcium imaging, SNAP-mGluR2 (no FLAG-tag) with chimeric G protein Gqo5 in HEK293T cells; format: cell-based; set-up: Full length mGluR2 construct with an amber codon (TAG) mutation of amino acid A548 (azi-CRD) or N-terminal SNAP-tag (SNAP-mGluR2); host or cells: HEK293T; conditions: for Intracellular Ca2+ response, Mean / Intracellular Ca2+ response: normalized to 1mM glutamate; for Intracellular Ca2+ response: single experiments
mGluR2 [3] = molecular target: mGluR2 (Mus musculus, UniProt Q14BI2, A548F); assay: Live-cell FRET, azi-CRD (cysteine-rich domain) sensor in HEK293T cells; conditions: for Normalized FRET response, Mean (azi-CRD agonist DRC): maximal responses normalized to 1mM glutamate
mGluR2 [4] = molecular target: mGluR2 (Mus musculus, UniProt Q14BI2, INS715F); assay: Live-cell FRET, azi-ECL2 (7TM domain, extracellular loop 2) sensor in HEK293T cells;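 further: Cy3/Cy5 click-labeled sensor, whole-membrane ROIs per cell, apparent FRET after bleed-through correction, ΔFRET as treatment minus pre-treatment signal, at room temperature, at least three biological replicates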
Sequence of mGluR2 (Mus musculus, UniProt Q14BI2, INS715F) (Q14BI2 with tags, fused parts or gaps INS715F): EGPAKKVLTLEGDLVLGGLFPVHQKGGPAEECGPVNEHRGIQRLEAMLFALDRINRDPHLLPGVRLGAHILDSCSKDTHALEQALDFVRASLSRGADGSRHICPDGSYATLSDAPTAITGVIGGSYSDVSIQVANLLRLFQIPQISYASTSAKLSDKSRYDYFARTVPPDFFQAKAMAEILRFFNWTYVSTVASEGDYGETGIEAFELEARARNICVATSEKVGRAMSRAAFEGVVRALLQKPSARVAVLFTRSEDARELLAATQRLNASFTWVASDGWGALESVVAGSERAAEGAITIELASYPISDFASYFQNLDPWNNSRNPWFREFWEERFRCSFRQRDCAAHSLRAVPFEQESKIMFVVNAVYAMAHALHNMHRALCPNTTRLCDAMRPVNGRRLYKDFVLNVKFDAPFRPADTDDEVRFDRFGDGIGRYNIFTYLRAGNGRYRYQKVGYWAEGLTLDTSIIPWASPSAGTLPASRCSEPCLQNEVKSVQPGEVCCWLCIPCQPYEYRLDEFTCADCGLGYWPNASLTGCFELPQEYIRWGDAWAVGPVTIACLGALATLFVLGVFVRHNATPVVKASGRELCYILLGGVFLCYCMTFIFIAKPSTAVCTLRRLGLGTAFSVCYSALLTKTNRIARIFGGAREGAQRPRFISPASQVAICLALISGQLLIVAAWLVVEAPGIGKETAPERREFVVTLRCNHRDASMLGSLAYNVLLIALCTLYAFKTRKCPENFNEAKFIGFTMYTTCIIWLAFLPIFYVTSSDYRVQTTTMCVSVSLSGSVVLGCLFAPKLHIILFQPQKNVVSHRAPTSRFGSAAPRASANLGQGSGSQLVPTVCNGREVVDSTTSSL

T1 sequence (Q14BI2 19-872): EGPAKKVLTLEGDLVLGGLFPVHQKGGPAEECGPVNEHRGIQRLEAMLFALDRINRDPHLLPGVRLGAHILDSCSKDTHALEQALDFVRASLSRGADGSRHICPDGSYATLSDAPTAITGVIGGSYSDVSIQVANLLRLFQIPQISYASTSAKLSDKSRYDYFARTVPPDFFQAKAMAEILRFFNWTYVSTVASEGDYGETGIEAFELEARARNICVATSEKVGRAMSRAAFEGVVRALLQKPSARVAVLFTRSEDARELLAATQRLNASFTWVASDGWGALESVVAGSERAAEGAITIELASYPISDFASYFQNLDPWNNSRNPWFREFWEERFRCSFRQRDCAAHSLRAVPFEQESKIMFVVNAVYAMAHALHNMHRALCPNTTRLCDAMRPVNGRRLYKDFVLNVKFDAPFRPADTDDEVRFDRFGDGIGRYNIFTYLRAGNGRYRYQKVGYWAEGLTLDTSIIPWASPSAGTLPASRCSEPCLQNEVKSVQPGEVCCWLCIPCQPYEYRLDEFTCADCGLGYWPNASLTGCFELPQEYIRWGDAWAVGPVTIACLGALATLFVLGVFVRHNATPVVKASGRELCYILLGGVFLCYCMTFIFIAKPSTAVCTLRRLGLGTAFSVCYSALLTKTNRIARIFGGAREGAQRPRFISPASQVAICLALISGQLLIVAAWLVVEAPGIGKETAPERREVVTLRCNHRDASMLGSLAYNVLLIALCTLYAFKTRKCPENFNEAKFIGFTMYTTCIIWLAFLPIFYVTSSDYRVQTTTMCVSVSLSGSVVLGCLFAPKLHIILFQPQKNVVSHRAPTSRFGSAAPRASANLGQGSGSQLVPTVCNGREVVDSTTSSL
Sequence of mGluR2 (Mus musculus, UniProt Q14BI2, A548F) (Q14BI2 19-872 A548F): as the sequence (Q14BI2 19-872) above, with A530F counted along it

N[C@@]1(C(=O)O)CN[C@@H](C(=O)O)C1 [(2R,4R)-APDC]
Mean max response (normalized max ΔFRET) (mGluR2 [1]; SNAP-m2 (VFT), agonist alone (1 mM glutamate, 100 μM DCG-IV, 20 μM LY379268, 100 μM APDC), normalized to 1 mM glutamate): 0.96 | Normalized Max ΔFRET (mGluR2 [1]; SNAP-m2, 100μM agonist, individual cells, normalized to 1mM glutamate): 103.479 and 93.3266 and 93.5994 and 94.2433 and 93.7977 and 94.1947 and 102.7 and 100.974 and 101.936 and 101.611 and 93.0019 and 94.3775 and 90.2119 and 91.2088 | Normalized Max ΔFRET, Mean (mGluR2 [1]; SNAP-m2, 100μM agonist, mean of cells, normalized to 1mM glutamate): 96.333 | Hill slope (mGluR2 [1]; SNAP-m2 sensor, orthosteric agonist alone): –1.10 | Live-cell FRET max response normalized to 1mM glutamate (mGluR2 [1]; SNAP-m2 sensor, (2R,4R)-APDC, individual values (N=14)): 1.016 and 0.93 and 0.9438 and 0.9021 and 0.9121 and 0.9333 and 0.936 and 0.9424 and 0.938 and 0.9419 and 1.035 and 1.027 and 1.01 and 1.019 | Normalized FRET response, Mean (SNAP-m2 agonist DRC) (mGluR2 [1]; log[ligand] (M) -4): -0.9633 | Normalized FRET response, Mean (SNAP-m2 agonist DRC) (mGluR2 [1]; log[ligand] (M) -4.52288): -0.8729 | Normalized FRET response, Mean (SNAP-m2 agonist DRC) (mGluR2 [1]; log[ligand] (M) -5): -0.684 | Normalized FRET response, Mean (SNAP-m2 agonist DRC) (mGluR2 [1]; log[ligand] (M) -5.39794): -0.4889 | Normalized FRET response, Mean (SNAP-m2 agonist DRC) (mGluR2 [1]; log[ligand] (M) -6): -0.1727 | Normalized FRET response, Mean (SNAP-m2 agonist DRC) (mGluR2 [1]; log[ligand] (M) -6.52288): -0.05437 | Normalized FRET response, Mean (SNAP-m2 agonist DRC) (mGluR2 [1]; log[ligand] (M) -7): 0 | Normalized FRET response, Mean (SNAP-m2 agonist DRC) (mGluR2 [1]; log[ligand] (M) -7.69897): 0 | EC50 (mGluR2 [1]; read-out: Live-cell FRET titration EC50, SNAP-m2, agonist alone, individual experiments): 2.88 µM and 3.03 µM and 3.16 µM and 22.1 µM and 5.53 µM and 4.87 µM | EC50 (mGluR2 [1]; read-out: Mean half-maximum effective concentration (EC50), SNAP-m2 sensor, orthosteric agonist alone): 6.9 µM | Normalized Max Intracellular Ca2+ Response, individual experiments (mGluR2 [2]; 100 μM DCG-IV, 10 μM LY379268, 300 μM APDC, normalized to 1 mM glutamate, single replicate): 1.151 and 1.196 and 0.9567 | Normalized Max Intracellular Ca2+ Response, mean (mGluR2 [2]; 1 mM Glu, 100 μM DCG-IV, 10 μM LY379268, 300 μM APDC, normalized to 1 mM glutamate): 1.101 | Intracellular Ca2+ response, Mean (mGluR2 [2]; log[agonist] (M) -3.52288): 1.101 | Intracellular Ca2+ response (mGluR2 [2]; log[agonist] (M) -3.52288): 1.101 | Intracellular Ca2+ response, Mean (mGluR2 [2]; log[agonist] (M) -3.82391): 1.121 | Intracellular Ca2+ response (mGluR2 [2]; log[agonist] (M) -3.82391): 1.13 and 1.129 and 1.105 | Intracellular Ca2+ response, Mean (mGluR2 [2]; log[agonist] (M) -4): 1.103 | Intracellular Ca2+ response (mGluR2 [2]; log[agonist] (M) -4): 1.155 and 1.085 and 1.068 | Intracellular Ca2+ response, Mean (mGluR2 [2]; log[agonist] (M) -4.52288): 0.9624 | Intracellular Ca2+ response (mGluR2 [2]; log[agonist] (M) -4.52288): 0.9835 and 0.9555 and 0.9483 | Intracellular Ca2+ response, Mean (mGluR2 [2]; log[agonist] (M) -5): 0.7274 | Intracellular Ca2+ response (mGluR2 [2]; log[agonist] (M) -5): 0.6253 and 0.7115 and 0.8453 | Intracellular Ca2+ response, Mean (mGluR2 [2]; log[agonist] (M) -5.39794): 0.3932 | Intracellular Ca2+ response (mGluR2 [2]; log[agonist] (M) -5.39794): 0.2825 and 0.3895 and 0.5075 | Intracellular Ca2+ response, Mean (mGluR2 [2]; log[agonist] (M) -6): 0 | Intracellular Ca2+ response (mGluR2 [2]; log[agonist] (M) -6): 0 | Intracellular Ca2+ response, Mean (mGluR2 [2]; log[agonist] (M) -6.52288): 0 | Intracellular Ca2+ response (mGluR2 [2]; log[agonist] (M) -6.52288): 0 | Intracellular Ca2+ response, Mean (mGluR2 [2]; log[agonist] (M) -7): 0 | Intracellular Ca2+ response (mGluR2 [2]; log[agonist] (M) -7): 0 | Intracellular Ca2+ response, Mean (mGluR2 [2]; log[agonist] (M) -7.69897): 0 | Intracellular Ca2+ response (mGluR2 [2]; log[agonist] (M) -7.69897): 0 | Intracellular Ca2+ response, Mean (mGluR2 [2]; log[agonist] (M) -8): 0 | Intracellular Ca2+ response (mGluR2 [2]; log[agonist] (M) -8): 0 | EC50 (mGluR2 [2]; one value per experiment, read-out: EC50, intracellular Ca2+ response): 4.48 µM and 8.58 µM and 6.56 µM | Hill slope (mGluR2 [3]; azi-CRD sensor, orthosteric agonist alone): 1.10 | Live-cell FRET max response normalized to 1mM glutamate (mGluR2 [3]; azi-CRD sensor, (2R,4R)-APDC, individual values (N=13)): 1.025 and 1.046 and 1.029 and 1.018 and 1.041 and 0.9926 and 1.05 and 1.031 and 1.033 and 1.059 and 0.9828 and 0.9967 and 0.9994 | Mean max response (normalized max ΔFRET) (mGluR2 [3]; azi-CRD, agonist alone (1 mM glutamate, 100 μM DCG-IV, 20 μM LY379268, 100 μM APDC), normalized to 1 mM glutamate): 1.02 | Normalized Max ΔFRET (mGluR2 [3]; azi-CRD, 100μM agonist, individual cells, normalized to 1mM glutamate): 105.882 and 99.2629 and 105.009 and 103.1 and 103.252 and 98.2759 and 99.67 and 99.937 and 102.531 and 104.556 and 102.893 and 101.835 and 104.136 | Normalized Max ΔFRET, Mean (mGluR2 [3]; azi-CRD, 100μM agonist, mean of cells, normalized to 1mM glutamate): 102.334 | Normalized FRET response, Mean (azi-CRD agonist DRC) (mGluR2 [3]; log[ligand] (M) -4): 1.023 | Normalized FRET response, Mean (azi-CRD agonist DRC) (mGluR2 [3]; log[ligand] (M) -4.1549): 1.003 | Normalized FRET response, Mean (azi-CRD agonist DRC) (mGluR2 [3]; log[ligand] (M) -4.52288): 0.929 | Normalized FRET response, Mean (azi-CRD agonist DRC) (mGluR2 [3]; log[ligand] (M) -5): 0.7432 | Normalized FRET response, Mean (azi-CRD agonist DRC) (mGluR2 [3]; log[ligand] (M) -5.39794): 0.4945 | Normalized FRET response, Mean (azi-CRD agonist DRC) (mGluR2 [3]; log[ligand] (M) -5.82391): 0.2779 | Normalized FRET response, Mean (azi-CRD agonist DRC) (mGluR2 [3]; log[ligand] (M) -6.52288): 0.07413 | Normalized FRET response, Mean (azi-CRD agonist DRC) (mGluR2 [3]; log[ligand] (M) -7): 0 | EC50 (mGluR2 [3]; read-out: Mean half-maximum effective concentration (EC50), azi-CRD sensor, orthosteric agonist alone): 6.5 µM | Mean max response (normalized max ΔFRET) (mGluR2 [4]; azi-ECL2, agonist alone (1 mM glutamate, 100 μM DCG-IV, 20 μM LY379268, 100 μM APDC), normalized to 1 mM glutamate): 1.05 | Normalized ΔFRET response, Mean (agonist DRC) (mGluR2 [4]; azi-ECL2, log[agonist] (M) -4, normalized to 1 mM glutamate): 1.046 | Normalized ΔFRET response, Mean (agonist DRC) (mGluR2 [4]; azi-ECL2, log[agonist] (M) -4.1549, normalized to 1 mM glutamate): 1.0205 | Normalized ΔFRET response, Mean (agonist DRC) (mGluR2 [4]; azi-ECL2, log[agonist] (M) -4.52288, normalized to 1 mM glutamate): 0.9248 | Normalized ΔFRET response, Mean (agonist DRC) (mGluR2 [4]; azi-ECL2, log[agonist] (M) -5, normalized to 1 mM glutamate): 0.7108 | Normalized ΔFRET response, Mean (agonist DRC) (mGluR2 [4]; azi-ECL2, log[agonist] (M) -5.39794, normalized to 1 mM glutamate): 0.4486 | Normalized ΔFRET response, Mean (agonist DRC) (mGluR2 [4]; azi-ECL2, log[agonist] (M) -5.82391, normalized to 1 mM glutamate): 0.2358 | Normalized ΔFRET response, Mean (agonist DRC) (mGluR2 [4]; azi-ECL2, log[agonist] (M) -6.52288, normalized to 1 mM glutamate): 0.04024 | Normalized ΔFRET response, Mean (agonist DRC) (mGluR2 [4]; azi-ECL2, log[agonist] (M) -7, normalized to 1 mM glutamate): 0 | Normalized Max ΔFRET, Mean (mGluR2 [4]; azi-ECL2, 100μM agonist, mean of cells, normalized to 1mM glutamate): 104.617 | Hill slope (mGluR2 [4]; azi-ECL2 sensor, orthosteric agonist alone): 1.14 | EC50 (mGluR2 [4]; read-out: EC50, live-cell FRET titration, azi-ECL2 sensor, (2R,4R)-APDC, individual cell values (N=13)): 8.97 µM and 10.9 µM and 18.9 µM and 4.32 µM and 2.57 µM and 2.14 µM and 6.27 µM and 6.18 µM and 3.15 µM and 4.64 µM and 4.05 µM and 5.53 µM | EC50 (mGluR2 [4]; read-out: Mean half-maximum effective concentration (EC50), azi-ECL2 sensor, orthosteric agonist alone): 6.7 µM
